Measured values as given in patent publication US20110312941A1, “1,4-DISUBSTITUTED PIPERIDINES AS VASOPRESSIN RECEPTOR VIA ANTAGONISTS” (VANTIA LIMITED, priority 2009, published 2011).

Target: T1, cloned human V1a receptor (Homo sapiens, UniProt P37288)
T1 construct: host or cells: human brain astrocytoma 1321N1 cells
Assay: in vitro functional calcium mobilisation assay (FLIPR), antagonist activity, 1321N1 cells, 250 pM AVP
Assay type: cell-based
Settings: functional pKi derived from pIC50 (Equation 1), FLIPR Ca2+ mobilisation, 1321N1 cells expressing cloned human V1a receptor, read-out: Mean fpKi (Human V1a) (converted)
Procedure: The primary assay which may be used to determine the ability of the compounds of formula (1) to inhibit the vasopressin V1a receptor is an in vitro functional calcium mobilisation assay (FLIPR) that measures antagonist activity at a cloned human V1a receptor. The assay is described below.
The antagonist activity of compounds of formula (1) were determined in a Calcium (Ca2+) mobilisation assay using whole cells (human brain astrocytoma 1321N1 cells, ex Perkin Elmer) genetically modified to stably express a cloned human V1a receptor. Dose response curves were determined by displacement of a single concentration of agonist (250 pM AVP, ex Sigma) with increasing concentrations of compound. A pIC50 value is determined by non-linear regression to a 4-parameter logistic equation and a functional pKi (fpKi) derived using Equation 1.
where A=agonist single conc, and A50=the agonist EC50.

T1 sequence (P37288 whole entry): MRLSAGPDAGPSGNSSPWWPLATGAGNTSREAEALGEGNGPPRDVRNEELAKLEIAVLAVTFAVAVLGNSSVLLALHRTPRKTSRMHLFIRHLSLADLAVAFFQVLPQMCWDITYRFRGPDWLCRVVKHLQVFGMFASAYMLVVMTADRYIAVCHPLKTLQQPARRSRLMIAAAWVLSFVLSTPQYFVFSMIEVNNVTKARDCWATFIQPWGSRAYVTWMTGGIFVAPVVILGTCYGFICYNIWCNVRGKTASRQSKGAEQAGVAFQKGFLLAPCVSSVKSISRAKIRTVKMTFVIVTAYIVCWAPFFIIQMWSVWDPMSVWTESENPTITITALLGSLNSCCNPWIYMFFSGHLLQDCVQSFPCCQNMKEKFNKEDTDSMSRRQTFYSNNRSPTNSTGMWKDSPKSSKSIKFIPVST

Point of comparison: `O=C(C1CCN(c2cccc(-c3ccccc3)c2)CC1)N1Cc2cccn2Cc2ccccc21` [Example 168], Ki 151 nM. Against it:
- Cc1ccc(N2CCC(C(=O)N3Cc4cnn(C)c4Nc4cc(Cl)ccc43)CC2)cc1 [Example 136] — 240-fold lower, 0.617 nM
- COc1cccnc1N1CCC(C(=O)N2CCc3nc(C4CCOCC4)[nH]c3-c3cc(C)ccc32)CC1 [Example 40] — 120-fold lower, 1.26 nM
- Cc1ccc(N2CCC(C(=O)N3Cc4cnn(C)c4Nc4cc(Cl)ccc43)CC2)nc1 [Example 118] — 87-fold lower, 1.74 nM
- Cc1ccc2c(c1)Nc1c(cnn1C)CN2C(=O)C1CCN(c2ccccn2)CC1 [Example 109] — 12-fold lower, 12.9 nM
- Cc1ccc(N2CCC(C(=O)N3Cc4cnn(C(C)(C)C)c4Nc4cc(F)ccc43)CC2)nc1 [Example 108] — 28-fold lower, 5.37 nM
- Cc1nc2c([nH]1)-c1cc(Cl)ccc1N(C(=O)C1CCN(c3ccc(Cl)cc3)CC1)CC2 [Example 88] — 24-fold lower, 6.17 nM
- O=C(C1CCN(c2ccccn2)CC1)N1CCc2nc(N3CCOCC3)[nH]c2-c2cc(Cl)ccc21 [Example 57] — 60-fold lower, 2.51 nM
- Cc1cccc(N2CCC(C(=O)N3Cc4cnn(C)c4Nc4cc(C)ccc43)CC2)c1 [Example 128] — 110-fold lower, 1.32 nM
- CCCc1nc2c([nH]1)-c1cc(Cl)ccc1N(C(=O)C1CCN(c3ccccn3)CC1)CC2 [Example 47] — 13-fold lower, 11.7 nM
- COc1ccc(N2CCC(C(=O)N3CCc4nc(C)[nH]c4-c4cc(Cl)ccc43)CC2)cc1 [Example 94] — 9.3-fold lower, 16.2 nM
- CCc1ccc(N2CCC(C(=O)N3CCc4nc(C)[nH]c4-c4cc(Cl)ccc43)CC2)cc1 [Example 95] — 48-fold lower, 3.16 nM
- Cc1ccc2c(c1)-c1nc(CC(C)C)[nH]c1CCN2C(=O)C1CCN(c2ccccn2)CC1 [Example 28] — 11-fold lower, 13.5 nM
- Cc1ccnc(N2CCC(C(=O)N3CCc4nc(N5CCOCC5)[nH]c4-c4cc(C)ccc43)CC2)c1 [Example 32] — 96-fold lower, 1.58 nM
- Cn1ncc2c1Nc1cc(Cl)ccc1N(C(=O)C1CCN(c3ccccc3F)CC1)C2 [Example 134] — 87-fold lower, 1.74 nM
- Cc1ccc(N2CCC(C(=O)N3CCc4nc(N5CCOCC5)[nH]c4-c4cc(F)ccc43)CC2)nc1 [Example 16] — 51-fold lower, 2.95 nM
- Cc1ccc2c(c1)Nc1c(cnn1C)CN2C(=O)C1CCN(c2ccc(C(F)(F)F)cc2)CC1 [Example 133] — 28-fold lower, 5.37 nM
- Cc1ccc2c(c1)-c1[nH]c(N3CCOCC3)nc1CCN2C(=O)C1CCN(c2cnccc2C)CC1 [Example 69] — 11-fold lower, 13.8 nM
- Cn1ncc2c1Nc1cc(Cl)ccc1N(C(=O)C1CCN(c3ccccn3)CC1)C2 [Example 115] — 22-fold lower, 6.92 nM
- CCc1nc2c([nH]1)-c1cc(Cl)ccc1N(C(=O)C1CCN(c3ccccn3)CC1)CC2 [Example 46] — 11-fold lower, 13.5 nM
- O=C(C1CCN(c2nccc(C(F)(F)F)n2)CC1)N1Cc2cnn(C3CCCCC3)c2Nc2ccccc21 [Example 99] — 4.3-fold lower, 35.5 nM
- COc1cccnc1N1CCC(C(=O)N2Cc3cnn(C)c3Nc3cc(Cl)ccc32)CC1 [Example 119] — 7.9-fold lower, 19.1 nM
- Cc1ccc2c(c1)-c1[nH]c(N3CCOCC3)nc1CCN2C(=O)C1CCN(c2ccc(C#N)cn2)CC1 [Example 36] — 1.5-fold lower, 97.7 nM
- O=C(C1CCN(c2ccccc2)CC1)N1CCc2nc(-c3cccc(F)c3)[nH]c2-c2cc(Cl)ccc21 [Example 81] — 1.6-fold lower, 93.3 nM
- CCCc1nc2c([nH]1)-c1cc(C)ccc1N(C(=O)C1CCN(c3ncccc3C)CC1)CC2 [Example 21] — 34-fold lower, 4.47 nM
- Cc1ccc(N2CCC(C(=O)N3Cc4cnn(C)c4Nc4cc(C)ccc43)CC2)nc1 [Example 112] — 54-fold lower, 2.82 nM
- Cc1ccccc1N1CCC(C(=O)N2Cc3cccn3Cc3ccccc32)CC1 [Example 159] — 14-fold lower, 10.5 nM
- Cc1ccc2c(c1)-c1[nH]c(C3CC3)nc1CCN2C(=O)C1CCN(c2ccccn2)CC1 [Example 24] — 17-fold lower, 8.71 nM
- Cc1ccc2c(c1)-c1[nH]c(N3CCOCC3)nc1CCN2C(=O)C1CCN(c2ccc(C(F)(F)F)cn2)CC1 [Example 35] — 21-fold lower, 7.08 nM
- COc1cccc(N2CCC(C(=O)N3CCc4nc(C5CCOCC5)[nH]c4-c4cc(C)ccc43)CC2)n1 [Example 66] — 4.9-fold lower, 30.9 nM
- COc1cccc(N2CCC(C(=O)N3Cc4cccn4Cc4ccccc43)CC2)c1 [Example 163] — 27-fold lower, 5.62 nM
- Cn1ncc2c1Nc1cc(Cl)ccc1N(C(=O)C1CCN(c3ncccn3)CC1)C2 [Example 103, (6-Chloro-3-methyl-4,10-dihydro-3H-2,3,4,9-tetraaza-benzo[f]azulen-9-yl)-(1-pyrimidin-2-yl-piperidin-4-yl)-methanone] — 2-fold lower, 75.9 nM
- O=C(C1CCN(c2cccnc2)CC1)N1Cc2cccn2Cc2ccccc21 [Example 146] — 4.8-fold lower, 31.6 nM
- CCCc1nc2c([nH]1)-c1cc(C)ccc1N(C(=O)C1CCN(c3ccccn3)CC1)CC2 [Example 20] — 12-fold lower, 12.3 nM
- COc1cccc(N2CCC(C(=O)N3Cc4cnn(C)c4Nc4cc(Cl)ccc43)CC2)c1 [Example 137] — 85-fold lower, 1.78 nM
- CCCCc1nc2c([nH]1)CCN(C(=O)C1CCN(c3ccccn3)CC1)c1ccc(C)cc1-2 [Example 26] — 8.3-fold lower, 18.2 nM
- Cc1ccc2c(c1)Nc1c(cnn1C)CN2C(=O)C1CCN(c2ccc(C)nc2)CC1 [Example 141] — 29-fold lower, 5.13 nM
- Cc1ccc(N2CCC(C(=O)N3Cc4cnn(-c5ccccc5)c4Nc4cc(Cl)ccc43)CC2)nc1 [Example 123] — 76-fold lower, 2 nM
- O=C(C1CCN(c2ccccc2)CC1)N1CCc2nc(Cc3ccccc3)[nH]c2-c2cc(Cl)ccc21 [Example 82] — 3.5-fold lower, 42.7 nM
- COc1ccccc1N1CCC(C(=O)N2CCc3nc(C)[nH]c3-c3cc(Cl)ccc32)CC1 [Example 92] — 6.6-fold lower, 22.9 nM
- O=C(C1CCN(c2ncccn2)CC1)N1Cc2cnn(-c3ccccc3)c2Nc2cc(Cl)ccc21 [Example 104] — 11-fold lower, 14.1 nM
- CCCc1ccc(N2CCC(C(=O)N3Cc4cccn4Cc4ccccc43)CC2)cc1 [Example 166] — 39-fold lower, 3.89 nM
- COc1ccc(N2CCC(C(=O)N3Cc4cnn(C)c4Nc4cc(C)ccc43)CC2)cc1 [Example 131] — 49-fold lower, 3.09 nM
- Cc1ccc(N2CCC(C(=O)N3CCc4nc(N5CCOCC5)[nH]c4-c4cc(Cl)ccc43)CC2)nc1 [Example 59] — 190-fold lower, 0.794 nM

System: dysmenorrhoea
Assay: not given
Settings: clinical study, compared to patients taking placebo; cited from earlier work

For `COc1ccc(S(=O)(=O)N2c3ccc(Cl)cc3[C@](O)(c3ccccc3Cl)[C@@H]2C(=O)N2CCC[C@H]2C(N)=O)cc1OC` [SR49059], the “amount of additional pain-killer taken” value is given as “dose-related decrease in the amount of additional pain-killer taken”.

For `COc1ccc(S(=O)(=O)N2c3ccc(Cl)cc3[C@](O)(c3ccccc3Cl)[C@@H]2C(=O)N2CCC[C@H]2C(N)=O)cc1OC` [SR49059], the pain is given as “dose-related decrease in pain”.
